From patent US20230355597A1, “COMPOUNDS, COMPOSITIONS, AND METHODS FOR THE TREATMENT AND PREVENTION OF AVIAN PATHOGENIC E. COLI (APEC)” (OHIO STATE INNOVATION FOUNDATION, priority 2018, published 2023)
Read-outs that look alike come from different tables or passages of the source. Marks after values point to notes of the source that are not given here.

Columns and labels:
APEC O1 [1] = experiment: Antimicrobial susceptibility profile, CAMHB micro-dilution (CLSI); type: cell-based, avian pathogenic Escherichia coli (APEC); conditions: (R) = resistant
APEC O115 [2] = experiment: as above; type: cell-based, avian pathogenic Escherichia coli (APEC); conditions: (R) = resistant
APEC O35 [3] = experiment: as above; type: cell-based, avian pathogenic Escherichia coli (APEC); conditions: (R) = resistant
APEC O2-211 [4] = experiment: as above; type: cell-based, avian pathogenic Escherichia coli (APEC); conditions: APEC O2-211, CAMHB micro-dilution; (R) = resistant
APEC O78 [5] = experiment: as above; type: cell-based, avian pathogenic Escherichia coli (APEC); conditions: (R) = resistant
APEC O18 [6] = experiment: as above; type: cell-based, avian pathogenic Escherichia coli (APEC); conditions: (R) = resistant
APEC O109 [7] = experiment: as above; type: cell-based, avian pathogenic Escherichia coli (APEC); conditions: (R) = resistant
APEC O2 [8] = experiment: as above; type: cell-based, avian pathogenic Escherichia coli (APEC); conditions: (R) = resistant
APEC O8 [9] = experiment: as above; type: cell-based, avian pathogenic Escherichia coli (APEC); conditions: (R) = resistant
APEC O1-63 [10] = experiment: as above; type: cell-based, avian pathogenic Escherichia coli (APEC); conditions: APEC O1-63, CAMHB micro-dilution; (R) = resistant
APEC O15 [11] = experiment: as above; type: cell-based, avian pathogenic Escherichia coli (APEC); conditions: (R) = resistant
APEC O78-53 [12] = experiment: as above; type: cell-based, avian pathogenic Escherichia coli (APEC); conditions: APEC O78-53, CAMHB micro-dilution; (R) = resistant
APEC O15 [13] = type: cell-based, avian pathogenic Escherichia coli (APEC); conditions: APEC O15, M63 media; MIC/MBC
APEC O78 [14] = type: cell-based, avian pathogenic Escherichia coli (APEC); conditions: APEC O78, M63 media; cell prints MIC/MBC
APEC O35 [15] = type: cell-based, avian pathogenic Escherichia coli (APEC); conditions: APEC O35, M63 media; MIC/MBC
[16] = test system: intracellular APEC O1 in THP-1 cells; experiment: Intracellular survival assay (cidal SMs); conditions: O1, THP-1, 6 h treatment; superscript = multiple of MIC
[17] = test system: intracellular APEC O78 in HD11 cells; experiment: Intracellular survival assay (cidal SMs); conditions: O78, HD11, 6 h treatment; superscript = multiple of MIC
[18] = test system: intracellular APEC O78 in THP-1 cells; experiment: Intracellular survival assay (cidal SMs); conditions: O78, THP-1, 6 h treatment; superscript = multiple of MIC
APEC O18 [19] = type: cell-based, avian pathogenic Escherichia coli (APEC); conditions: APEC O18, M63 media; MIC/MBC
APEC O1 [20] = type: cell-based, avian pathogenic Escherichia coli (APEC); conditions: APEC O1, M63 media; MIC/MBC
APEC O78 [21] = experiment: Loss of 260/280 nm absorbing materials assay; type: cell-based, avian pathogenic Escherichia coli (APEC); conditions: 2X MBC, 1 h, *P<0.05 vs DMSO; for Absorbance 260: 260 nm absorbing material in supernatant; for Absorbance 280: 280 nm absorbing material in supernatant
APEC O8 [22] = type: cell-based, avian pathogenic Escherichia coli (APEC); conditions: APEC O8, M63 media; MIC/MBC
[23] = test system: intracellular APEC O1 in Caco-2 cells; experiment: Intracellular survival assay (cidal SMs); conditions: O1, Caco-2, 6 h treatment; superscript = multiple of MIC
APEC O115 [24] = type: cell-based, avian pathogenic Escherichia coli (APEC); conditions: APEC O115, M63 media; MIC/MBC
[25] = test system: biofilm embedded APEC O78; experiment: MBEC High-throughput assay; type: cell-based, avian pathogenic Escherichia coli (APEC); conditions: biofilm embedded APEC O78; superscript = multiple of MIC (footnote)
[26] = test system: intracellular APEC O2 in THP-1 cells; experiment: Intracellular survival assay (cidal SMs); conditions: O2, THP-1, 6 h treatment; superscript = multiple of MIC
APEC O78-53 [27] = type: cell-based, avian pathogenic Escherichia coli (APEC); conditions: APEC O78-53, M63 media; MIC/MBC
APEC O2-211 [28] = type: cell-based, avian pathogenic Escherichia coli (APEC); conditions: APEC O2-211, M63 media; MIC/MBC
[29] = test system: intracellular APEC O78 in Caco-2 cells; experiment: Intracellular survival assay (cidal SMs); conditions: O78, Caco-2, 6 h treatment; superscript = multiple of MIC
[30] = test system: intracellular APEC O1 in HD11 cells; experiment: Intracellular survival assay (cidal SMs); conditions: O1, HD11, 6 h treatment; superscript = multiple of MIC
[31] = test system: intracellular APEC O2 in HD11 cells; experiment: Intracellular survival assay (cidal SMs); conditions: O2, HD11, 6 h treatment; superscript = multiple of MIC
APEC O1-63 [32] = type: cell-based, avian pathogenic Escherichia coli (APEC); conditions: APEC O1-63, M63 media; MIC/MBC
APEC O78 [33] = experiment: Confocal microscopy bacterial cytological profiling; type: cell-based, avian pathogenic Escherichia coli (APEC); conditions: 2X MBC
Procedure: Confocal and scanning electron microscopy. Confocal microscopy was used for bacterial cytological profiling (BCP) to identify the cellular pathways targeted by SMs as described previously. […] After incubation, treated cultures were centrifuged, washed, and resuspended in 100 μL PBS. […] Cultures were then centrifuged, washed, and resuspended in PBS to 1⁄10th volume of the original cultures.

APEC O2 [34] = type: cell-based, avian pathogenic Escherichia coli (APEC); conditions: APEC O2, M63 media; MIC/MBC
[35] = test system: intracellular APEC O2 in Caco-2 cells; experiment: Intracellular survival assay (cidal SMs); conditions: O2, Caco-2, 6 h treatment; superscript = multiple of MIC
APEC O109 [36] = type: cell-based, avian pathogenic Escherichia coli (APEC); conditions: APEC O109, M63 media; MIC/MBC
[37] = Pilot experiment in chickens; type: in vivo, chicken
Rif^r APEC O78 = experiment: In vivo efficacy of growth inhibitors in APEC infected broiler chickens

CC1(C)S[C@@H]2[C@H](NC(=O)[C@H](N)c3ccccc3)C(=O)N2[C@H]1C(=O)O [Ampicillin]
2 µg/mL: MIC (APEC O35 [3]) | MIC (APEC O15 [11])
4 µg/mL: MIC (APEC O2-211 [4]) | MIC (APEC O18 [6]) | MIC (APEC O8 [9]) | MIC (APEC O1-63 [10]) | MIC (APEC O78-53 [12])
>64 (R) µg/mL: MIC (APEC O1 [1]) | MIC (APEC O115 [2]) | MIC (APEC O78 [5]) | MIC (APEC O109 [7]) | MIC (APEC O2 [8])

Colistin
1 µg/mL: MIC (APEC O115 [2]) | MIC (APEC O35 [3]) | MIC (APEC O18 [6]) | MIC (APEC O8 [9]) | MIC (APEC O15 [11])
0.25 µg/mL: MIC (APEC O78 [5])
4 (R) µg/mL: MIC (APEC O2-211 [4]) | MIC (APEC O1-63 [10])
0.5 µg/mL: MIC (APEC O1 [1]) | MIC (APEC O109 [7]) | MIC (APEC O2 [8]) | MIC (APEC O78-53 [12])

CCCCCCCCCCCCCCCCn1c[n+](C)c2ccccc21.[Br-] [SM5]
50^c µM: SMs intracellular APEC clearance concentration [17] | SMs intracellular APEC clearance concentration [18] | SMs intracellular APEC clearance concentration [26] | SMs intracellular APEC clearance concentration [29] | SMs intracellular APEC clearance concentration [31]
25 µM: MBC (APEC O78 [14]) | MBC (APEC O35 [15]) | MBC (APEC O1-63 [32]) | MBC (APEC O2 [34])
membrane disruptors: cytological profile (confocal, FM4-64 / SYTO-9) (APEC O78 [33])
4.00*: Absorbance 260 (APEC O78 [21])
25^c µM: MBEC [25]
no negative impact: impact on chicken health and performance [37]
2.67*: Absorbance 280 (APEC O78 [21])
100^d µM: SMs intracellular APEC clearance concentration [16] | SMs intracellular APEC clearance concentration [23] | SMs intracellular APEC clearance concentration [30] | SMs intracellular APEC clearance concentration [35]
12.5 µM: MBC (APEC O15 [13]) | MIC (APEC O15 [13]) | MIC (APEC O78 [14]) | MIC (APEC O35 [15]) | MBC (APEC O18 [19]) | MIC (APEC O18 [19]) | MBC (APEC O1 [20]) | MIC (APEC O1 [20]) | MBC (APEC O8 [22]) | MIC (APEC O8 [22]) | MBC (APEC O115 [24]) | MIC (APEC O115 [24]) | MBC (APEC O78-53 [27]) | MIC (APEC O78-53 [27]) | MBC (APEC O2-211 [28]) | MIC (APEC O2-211 [28]) | MIC (APEC O1-63 [32]) | MIC (APEC O2 [34]) | MBC (APEC O109 [36]) | MIC (APEC O109 [36])

CN(C)[C@@H]1C(=O)C(C(N)=O)=C(O)[C@@]2(O)C(=O)C3=C(O)c4c(O)cccc4[C@@](C)(O)[C@H]3C[C@@H]12 [Tetracycline]
16 (R) µg/mL: MIC (APEC O1-63 [10])
32 (R) µg/mL: MIC (APEC O78 [5])
>64 (R) µg/mL: MIC (APEC O1 [1]) | MIC (APEC O115 [2]) | MIC (APEC O2-211 [4]) | MIC (APEC O2 [8]) | MIC (APEC O8 [9]) | MIC (APEC O15 [11]) | MIC (APEC O78-53 [12])
2 µg/mL: MIC (APEC O18 [6])
1 µg/mL: MIC (APEC O35 [3]) | MIC (APEC O109 [7])

CCCCCCCCCCCCCCCC[n+]1ccn(CC#N)c1 [SM6]
1.9 log CFU/g of tissues: reduction of APEC load, Kidney (Rif^r APEC O78; vs untreated control)
50^c µM: SMs intracellular APEC clearance concentration [17] | SMs intracellular APEC clearance concentration [18] | SMs intracellular APEC clearance concentration [26] | SMs intracellular APEC clearance concentration [29] | SMs intracellular APEC clearance concentration [31]
1.3 log CFU/g of tissues: reduction of APEC load, Heart (Rif^r APEC O78; vs untreated control)
5.4: cumulative lesions score (Rif^r APEC O78; liver, heart, lung and air-sacs, untreated 6.2)
-41.2%: reduction of APEC lesions severity (%), Air-sacs (airsacculitis) (Rif^r APEC O78; untreated control = 100%)
3.99*: Absorbance 260 (APEC O78 [21])
25 µM: MBC (APEC O15 [13]) | MBC (APEC O78 [14]) | MBC (APEC O35 [15]) | MBC (APEC O18 [19]) | MBC (APEC O1 [20]) | MBC (APEC O115 [24]) | MBC (APEC O78-53 [27]) | MBC (APEC O1-63 [32]) | MBC (APEC O2 [34]) | MIC (APEC O2 [34])
33.3%: reduction of APEC lesions severity (%), Lung (lung congestion) (Rif^r APEC O78; untreated control = 100%)
2.69*: Absorbance 280 (APEC O78 [21])
222.18±54.01: Body weight gain (BWG) (Rif^r APEC O78; weight of live chickens before necropsy minus weight before treatment)
12.5^a µM: MBEC [25]
42.86%: reduction of APEC induced mortality (Rif^r APEC O78; oral gavage twice a day, 5 days, untreated mortality (58.34%) normalized to 100%)
1.2 log CFU/g of tissues: reduction of APEC load, Liver (Rif^r APEC O78; vs untreated control) | reduction of APEC load, Lung (Rif^r APEC O78; vs untreated control)
no negative impact: impact on chicken health and performance [37]
100^d µM: SMs intracellular APEC clearance concentration [16] | SMs intracellular APEC clearance concentration [23] | SMs intracellular APEC clearance concentration [30] | SMs intracellular APEC clearance concentration [35]
1.4 logs: reduction of average APEC load in internal organs (Rif^r APEC O78; average of liver, heart, lung and kidney, vs untreated control)
12.5 µM: MIC (APEC O15 [13]) | MIC (APEC O78 [14]) | MIC (APEC O35 [15]) | MIC (APEC O18 [19]) | MIC (APEC O1 [20]) | MBC (APEC O8 [22]) | MIC (APEC O8 [22]) | MIC (APEC O115 [24]) | MIC (APEC O78-53 [27]) | MBC (APEC O2-211 [28]) | MIC (APEC O2-211 [28]) | MIC (APEC O1-63 [32]) | MBC (APEC O109 [36]) | MIC (APEC O109 [36])
membrane disruptors: cytological profile (confocal, FM4-64 / SYTO-9) (APEC O78 [33])
20%: reduction of APEC lesions severity (%), Heart (pericarditis) (Rif^r APEC O78; untreated control = 100%)
